Experimental data: ChEMBL document CHEMBL1201862, “PubChem BioAssay data set” (2004)
Active and inactive are the calls of the source.

Legend:
[1] = target: Serine/threonine-protein phosphatase (Candida dubliniensis (strain CD36 / CBS 7987 / NCPF 3949 / NRRLY-17841) (Yeast), UniProt B9W6M3); assay: blockers of CaCl2-induced CDRE-lacZ signaling – S. cerevisiae, luminescence, secondary, dose response (AID 2388); assay type: functional, cell-based;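 also: yeast reporter cells carrying a calcineurin-responsive lacZ construct stimulated with calcium chloride; luminescent beta-galactosidase reporter signal in whole cells rather than isolated phosphatase activity; potency for inhibition where a drop in reporter signal means calcineurin blockade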
[2] = fluconazole-exposed Candida albicans growth modulators – fluorescence, retest, confirmation (AID 2467); assay type: functional, cell-based
[3] = target: ATP-dependent molecular chaperone HSP82 (Candida albicans (strain WO-1) (Yeast), UniProt C4YTQ8); assay: steroid-induced GRE reporter decrease in yeast – S. cerevisiae, luminescence, Hsp90 inhibitor project, dose response (AID 2400); assay type: functional, cell-based;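 also: beta-galactosidase luminescence from glucocorticoid response element reporter as proxy for Hsp90 function; inhibitor potency where signal loss means Hsp90 inhibition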
[4] = NIH-3T3 fibroblast cytotoxicity, dose response, cytotoxicity control, cell-based, fluorescence, Alamar Blue, secondary assay (AID 2327); assay type: functional;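 also: NIH-3T3 mouse fibroblasts cultured with fluconazole at 8 µg/mL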
[5] = target: T1, Dual specificity protein phosphatase 3 (Homo sapiens, UniProt P51452); assay: MOA VHR1 Fluorescent secondary assay for identification of redox-state modulating compounds. [Related pubchem assays (depositor defined):AID1654, AID1661, AID1878, AID1957]
[6] = target: Dual specificity protein phosphatase 6 (Rattus norvegicus, UniProt Q64346); assay type: functional;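 also: confirmatory in vitro dose-response testing of MKP-3 inhibition; recombinant His-tagged MKP-3 made in E. coli BL21 with OMFP substrate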
[7] = target: Tyrosine-protein phosphatase non-receptor type 7 (Homo sapiens, UniProt P35236); assay: redox-active compounds inhibiting HePTP phosphatase – biochemical, fluorescence, mechanism study (AID 2068); assay type: functional
[8] = target: T1, Dual specificity protein phosphatase 3; assay: SAR VHR1 Fluorescent Assay for In Vitro dose response studies. [Related pubchem assays (depositor defined):AID1654, AID1661, AID1878, AID1992, AID2004, AID2070, AID2085]; assay type: functional
[9] = test system: NIH3T3; assay: NIH-3T3 viability loss with fluconazole – cell-based, Alamar Blue, dry powder, set 3, cytotoxicity control for reversing antifungal drug resistance, dose response (AID 488933); assay type: functional; settings: Mus musculus
[10] = test system: HEK293; assay: cells; assay type: functional, cell-based; settings: Homo sapiens
[11] = target: T2, Nuclear receptor subfamily 0 group B member 1 (Homo sapiens, UniProt P51843); assay: Luminescence-based cell-based high throughput dose response assay for inhibitors of the orphan nuclear receptor subfamily 0, group B, member 1 (DAX1; NR0B1). [Related pubchem assays (depositor defined):AID504766, AID504790]; assay type: functional
T2 sequence (P51843 whole entry): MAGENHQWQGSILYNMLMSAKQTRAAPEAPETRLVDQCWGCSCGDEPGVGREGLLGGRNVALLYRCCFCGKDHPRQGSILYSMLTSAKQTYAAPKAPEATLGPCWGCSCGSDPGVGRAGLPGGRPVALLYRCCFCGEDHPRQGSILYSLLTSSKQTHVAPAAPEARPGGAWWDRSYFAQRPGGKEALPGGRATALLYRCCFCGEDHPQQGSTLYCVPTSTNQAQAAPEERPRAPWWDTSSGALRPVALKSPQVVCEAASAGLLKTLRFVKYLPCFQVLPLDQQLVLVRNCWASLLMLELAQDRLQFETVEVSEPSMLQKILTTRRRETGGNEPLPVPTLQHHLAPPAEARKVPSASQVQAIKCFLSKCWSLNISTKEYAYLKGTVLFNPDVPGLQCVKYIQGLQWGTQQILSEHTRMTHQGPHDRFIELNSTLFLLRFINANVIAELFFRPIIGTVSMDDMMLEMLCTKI

[12] = target: T3, CAAX prenyl protease 2 (Saccharomyces cerevisiae S288c, UniProt Q03530); assay type: biochemical
T3 sequence (Q03530 whole entry): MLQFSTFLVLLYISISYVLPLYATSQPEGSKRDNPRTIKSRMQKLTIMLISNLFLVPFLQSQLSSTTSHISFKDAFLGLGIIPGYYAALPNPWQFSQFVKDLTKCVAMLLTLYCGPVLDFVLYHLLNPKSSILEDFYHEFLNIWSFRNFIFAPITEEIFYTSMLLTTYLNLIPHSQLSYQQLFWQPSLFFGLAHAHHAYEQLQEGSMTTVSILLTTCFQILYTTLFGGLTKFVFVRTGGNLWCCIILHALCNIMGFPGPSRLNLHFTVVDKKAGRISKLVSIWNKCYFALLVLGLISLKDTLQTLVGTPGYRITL

[13] = target: Troponin, cardiac muscle (Homo sapiens, UniProt P19429+P45379+P63316); assay: Fluorescence-based biochemical high throughput dose response assay for activators of the calcium sensitivity of cardiac Regulated Thin Filaments (RTF). [Related pubchem assays (depositor defined):AID493008, AID493018, AID504382, AID504383]; assay type: protein-complex assay
[14] = target: T4, Cytochrome P450 1A2 (Homo sapiens, UniProt P05177);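 also: PubChem cytochrome P450 panel assay, CYP1A2 panel member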
T4 sequence (P05177 whole entry): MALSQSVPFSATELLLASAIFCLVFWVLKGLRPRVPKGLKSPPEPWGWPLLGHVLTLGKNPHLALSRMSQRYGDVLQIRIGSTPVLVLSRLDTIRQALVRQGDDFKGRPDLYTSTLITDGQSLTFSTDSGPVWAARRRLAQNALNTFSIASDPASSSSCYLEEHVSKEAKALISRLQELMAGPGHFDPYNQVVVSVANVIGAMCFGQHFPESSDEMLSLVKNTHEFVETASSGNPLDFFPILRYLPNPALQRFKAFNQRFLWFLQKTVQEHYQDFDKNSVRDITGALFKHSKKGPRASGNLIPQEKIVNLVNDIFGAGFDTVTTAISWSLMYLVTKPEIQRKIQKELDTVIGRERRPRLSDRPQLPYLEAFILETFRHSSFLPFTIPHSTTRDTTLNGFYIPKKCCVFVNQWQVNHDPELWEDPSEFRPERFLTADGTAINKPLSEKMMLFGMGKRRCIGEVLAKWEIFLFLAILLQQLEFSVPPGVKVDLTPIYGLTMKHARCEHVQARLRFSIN

[15] = target: Cytochrome P450 2D6 (Homo sapiens, UniProt P10635);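 also: CYP2D6 member of a cytochrome P450 panel assay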
[16] = target: Keap1/Nrf2 (Homo sapiens, UniProt Q14145); assay: disruptors of Keap1 binding to Nrf2 peptide – biochemical, fluorescence polarization, cherry-picked samples, dose response (AID 588683)
[17] = alpha-synuclein stem-loop translation blockers – luminescence, H4 neuroglioblastoma cells, dose confirmation, confirmation (AID 2454); assay type: functional, cell-based;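 also: H4 neuroglioblastoma cells carrying an alpha-synuclein 5'UTR luciferase reporter; potency for inhibition of the luciferase signal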
[18] = luciferase reporter signal reduction – luminescence, H4-C neuroglioblastoma cells, dose response (AID 2458); assay type: functional, cell-based;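 also: H4 neuroglioblastoma cells stably carrying a luciferase reporter gene fusion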
[19] = alpha-synuclein stem-loop luciferase translation blockers – H4 neuroglioma cells, luminescence, confirmation (AID 1988); assay type: functional, cell-based
[20] = cells; assay type: functional, cell-based
[21] = luciferase reporter signal suppression in cells – H4 neuroglioma cells, luminescence, dose response (AID 1990); assay type: functional, cell-based
[22] = Luminescence Cell-Based Dose Response HTS to Identify Inhibitors of 5'UTR Stem-Loop Driven Prion Protein mRNA Translation in H4 Neuroglioblastoma Cells. [Related pubchem assays: 1827 (Project Summary), 1813 (Primary HTS)]; assay type: functional
[23] = HEK-293T viability loss, compound-treated – cell-based, uHTS hits, cytotoxicity control for B/T-cell NF-kB inhibitor project, dose response (AID 489019); assay type: functional;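 also: IC50 reflects cytotoxicity as loss of cell viability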
[24] = test system: Jurkat; assay: blockers of NF-kB activation in T cells – Jurkat, luciferase reporter, luminescence, B- and T-cell, dose response (AID 489004); assay type: functional, cell-based; settings: Homo sapiens;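 also: NF-kB luciferase reporter Jurkat cells stimulated with PMA plus ionomycin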
[25] = target: Hexokinase-1 (Homo sapiens, UniProt P19367); assay: SAR analysis of small molecule inhibitors of hexokinase domain containing I (HKDC1) in the hexokinase 1 selectivity assay. [Related pubchem assays (depositor defined):AID493160, AID493190]; assay type: functional
[26] = target: T5, Hexokinase HKDC1 (Homo sapiens, UniProt Q2TB90); assay: SAR analysis of small molecule inhibitors of hexokinase domain containing I (HKDC1). [Related pubchem assays (depositor defined):AID493160, AID493190]; assay type: functional
T5 sequence (Q2TB90 whole entry): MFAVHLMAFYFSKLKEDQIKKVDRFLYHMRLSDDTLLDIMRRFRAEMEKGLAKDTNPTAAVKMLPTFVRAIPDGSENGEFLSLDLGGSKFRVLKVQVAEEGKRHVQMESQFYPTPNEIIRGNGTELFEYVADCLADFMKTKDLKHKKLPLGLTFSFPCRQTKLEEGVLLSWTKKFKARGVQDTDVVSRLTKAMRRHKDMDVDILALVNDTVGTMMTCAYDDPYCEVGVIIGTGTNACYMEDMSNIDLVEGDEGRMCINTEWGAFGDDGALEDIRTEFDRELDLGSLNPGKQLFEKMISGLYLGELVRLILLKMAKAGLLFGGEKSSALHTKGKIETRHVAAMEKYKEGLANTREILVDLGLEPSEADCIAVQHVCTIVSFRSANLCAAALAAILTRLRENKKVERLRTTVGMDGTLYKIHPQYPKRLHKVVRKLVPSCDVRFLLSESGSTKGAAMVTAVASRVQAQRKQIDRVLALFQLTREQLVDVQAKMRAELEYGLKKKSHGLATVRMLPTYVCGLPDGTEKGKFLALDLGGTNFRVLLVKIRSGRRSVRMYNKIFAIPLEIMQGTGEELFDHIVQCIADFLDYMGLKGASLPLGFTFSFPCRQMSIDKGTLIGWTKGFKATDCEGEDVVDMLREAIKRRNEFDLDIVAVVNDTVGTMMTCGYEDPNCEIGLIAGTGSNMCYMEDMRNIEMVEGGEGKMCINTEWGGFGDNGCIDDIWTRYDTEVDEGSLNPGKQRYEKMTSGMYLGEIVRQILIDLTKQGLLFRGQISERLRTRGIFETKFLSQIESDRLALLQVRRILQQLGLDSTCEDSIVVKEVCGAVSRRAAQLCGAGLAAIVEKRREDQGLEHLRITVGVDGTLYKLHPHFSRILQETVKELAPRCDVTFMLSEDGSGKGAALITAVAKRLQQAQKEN

[27] = Luminescence Cell-Based/Microorganism Confirmation at Dose of Inhibitors of Trypanosoma cruzi Infection. [Related pubchem assays: 1885, 1968 ]; assay type: functional
[28] = Luminescence Cell-Based Secondary HTS screen to identify cytotoxic compounds of NIH3T3 cells. [Related pubchem assays: 1885, 1968 ]; assay type: functional
[29] = T. cruzi infection blockers in NIH3T3 cells – beta-gal luminescence, NIH3T3 host cells, confirmation (AID 2630); assay type: functional, cell-based; settings: Mus musculus
[30] = test system: INS1; assay: suppression of cytokine-induced beta-cell apoptosis – INS-1E, caspase luminescence, dry powder, beta-cell apoptosis inhibitor project, dose response (AID 488848); assay type: functional, cell-based; settings: Rattus norvegicus
[31] = target: T4, Cytochrome P450 1A2; remark: listed apart in the source
[32] = target: Cytochrome P450 2C9 (Homo sapiens, UniProt P11712)
[33] = restored growth of temperature-sensitive Burl-1 yeast – whole organism, S. cerevisiae, Burl-1 ts mutant, luminescence, counter-screen for SUMOylation pathway inhibitor project, dose response (AID 463199); assay type: functional

T1 sequence (P51452 whole entry): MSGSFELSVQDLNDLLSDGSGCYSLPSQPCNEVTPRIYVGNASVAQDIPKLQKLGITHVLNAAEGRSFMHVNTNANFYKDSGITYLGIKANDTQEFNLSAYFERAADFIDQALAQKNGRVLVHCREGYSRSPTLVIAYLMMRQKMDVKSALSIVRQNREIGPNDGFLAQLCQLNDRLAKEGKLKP
ATP-dependent molecular chaperone HSP82, sequence (C4YTQ8 whole entry): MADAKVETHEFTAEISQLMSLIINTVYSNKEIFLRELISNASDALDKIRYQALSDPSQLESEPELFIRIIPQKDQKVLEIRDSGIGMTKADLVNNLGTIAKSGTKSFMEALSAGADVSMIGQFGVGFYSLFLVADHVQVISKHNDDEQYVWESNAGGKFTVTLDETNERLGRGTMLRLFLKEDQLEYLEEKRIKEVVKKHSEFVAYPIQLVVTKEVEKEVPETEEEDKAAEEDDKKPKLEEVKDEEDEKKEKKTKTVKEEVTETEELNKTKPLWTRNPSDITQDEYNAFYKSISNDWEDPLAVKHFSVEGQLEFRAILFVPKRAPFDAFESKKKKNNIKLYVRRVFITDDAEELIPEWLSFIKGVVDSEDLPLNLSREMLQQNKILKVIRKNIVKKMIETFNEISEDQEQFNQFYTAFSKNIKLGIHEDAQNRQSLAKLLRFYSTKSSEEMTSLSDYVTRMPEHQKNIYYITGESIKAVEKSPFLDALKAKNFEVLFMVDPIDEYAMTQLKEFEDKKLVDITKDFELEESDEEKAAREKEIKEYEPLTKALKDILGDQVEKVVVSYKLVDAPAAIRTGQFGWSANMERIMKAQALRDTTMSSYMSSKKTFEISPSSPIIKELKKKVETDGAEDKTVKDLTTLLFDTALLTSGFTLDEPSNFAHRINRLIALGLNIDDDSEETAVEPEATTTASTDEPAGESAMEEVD
Tyrosine-protein phosphatase non-receptor type 7, sequence (P35236 whole entry): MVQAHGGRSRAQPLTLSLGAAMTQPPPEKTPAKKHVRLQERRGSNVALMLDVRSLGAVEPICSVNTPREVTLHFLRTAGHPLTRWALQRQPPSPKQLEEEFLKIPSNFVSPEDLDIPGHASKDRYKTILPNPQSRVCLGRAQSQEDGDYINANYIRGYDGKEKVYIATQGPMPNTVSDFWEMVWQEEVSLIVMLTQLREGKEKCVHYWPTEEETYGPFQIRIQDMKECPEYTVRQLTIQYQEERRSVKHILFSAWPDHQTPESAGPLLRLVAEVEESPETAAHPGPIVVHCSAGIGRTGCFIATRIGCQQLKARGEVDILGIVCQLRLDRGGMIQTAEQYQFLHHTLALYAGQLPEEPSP
Cytochrome P450 2C9, sequence (P11712 whole entry): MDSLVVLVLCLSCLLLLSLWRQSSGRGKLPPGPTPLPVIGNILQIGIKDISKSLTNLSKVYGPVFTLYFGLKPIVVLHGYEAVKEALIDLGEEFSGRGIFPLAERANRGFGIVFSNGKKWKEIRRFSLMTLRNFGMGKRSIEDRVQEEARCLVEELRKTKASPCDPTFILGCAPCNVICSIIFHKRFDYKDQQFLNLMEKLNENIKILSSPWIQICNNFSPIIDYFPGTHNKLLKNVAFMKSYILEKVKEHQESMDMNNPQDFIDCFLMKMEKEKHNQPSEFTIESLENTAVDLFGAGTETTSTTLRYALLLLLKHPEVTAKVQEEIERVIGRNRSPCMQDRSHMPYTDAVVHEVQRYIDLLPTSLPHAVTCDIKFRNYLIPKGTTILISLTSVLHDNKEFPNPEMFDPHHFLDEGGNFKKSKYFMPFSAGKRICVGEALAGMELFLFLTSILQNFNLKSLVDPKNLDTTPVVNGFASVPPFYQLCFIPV
Cytochrome P450 2D6, sequence (P10635 whole entry): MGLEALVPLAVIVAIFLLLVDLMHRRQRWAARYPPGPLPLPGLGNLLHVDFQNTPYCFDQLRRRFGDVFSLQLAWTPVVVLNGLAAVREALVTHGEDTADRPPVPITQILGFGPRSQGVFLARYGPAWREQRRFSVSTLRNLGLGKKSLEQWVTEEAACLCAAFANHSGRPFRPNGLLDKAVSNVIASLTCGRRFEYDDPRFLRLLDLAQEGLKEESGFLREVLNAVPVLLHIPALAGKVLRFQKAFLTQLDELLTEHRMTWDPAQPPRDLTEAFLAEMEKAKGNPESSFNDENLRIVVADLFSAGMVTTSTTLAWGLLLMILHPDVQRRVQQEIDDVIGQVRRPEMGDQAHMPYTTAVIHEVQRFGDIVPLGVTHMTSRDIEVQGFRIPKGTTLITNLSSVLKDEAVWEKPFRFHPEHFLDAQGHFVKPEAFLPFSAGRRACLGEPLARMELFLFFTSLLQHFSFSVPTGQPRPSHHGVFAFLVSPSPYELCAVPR
Hexokinase-1, sequence (P19367 whole entry, the tested form may be a part): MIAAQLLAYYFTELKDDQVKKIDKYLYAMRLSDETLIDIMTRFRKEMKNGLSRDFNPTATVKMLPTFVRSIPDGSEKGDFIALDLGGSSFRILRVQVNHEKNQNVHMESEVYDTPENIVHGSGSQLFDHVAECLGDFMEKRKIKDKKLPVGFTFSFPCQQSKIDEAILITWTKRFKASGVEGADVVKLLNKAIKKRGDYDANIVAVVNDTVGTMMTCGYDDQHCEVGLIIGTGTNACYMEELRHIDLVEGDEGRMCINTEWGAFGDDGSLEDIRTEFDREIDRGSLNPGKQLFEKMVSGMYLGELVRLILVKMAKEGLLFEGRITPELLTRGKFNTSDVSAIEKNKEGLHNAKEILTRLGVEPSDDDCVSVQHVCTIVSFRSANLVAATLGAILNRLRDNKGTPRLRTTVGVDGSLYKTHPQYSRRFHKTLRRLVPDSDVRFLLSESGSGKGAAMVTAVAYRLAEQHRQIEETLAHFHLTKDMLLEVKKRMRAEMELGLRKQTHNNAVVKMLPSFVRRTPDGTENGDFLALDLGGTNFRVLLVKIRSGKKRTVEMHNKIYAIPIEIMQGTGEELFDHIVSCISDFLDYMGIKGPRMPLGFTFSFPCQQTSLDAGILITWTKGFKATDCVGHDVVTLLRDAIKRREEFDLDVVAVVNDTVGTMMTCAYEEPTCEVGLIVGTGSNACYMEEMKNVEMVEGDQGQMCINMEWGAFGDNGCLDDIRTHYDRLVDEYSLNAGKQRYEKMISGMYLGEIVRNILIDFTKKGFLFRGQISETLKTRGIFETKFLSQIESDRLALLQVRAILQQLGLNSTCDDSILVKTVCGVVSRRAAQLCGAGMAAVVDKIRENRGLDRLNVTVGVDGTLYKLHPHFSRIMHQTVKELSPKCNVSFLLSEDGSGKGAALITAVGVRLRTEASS
Serine/threonine-protein phosphatase, sequence (B9W6M3 whole entry): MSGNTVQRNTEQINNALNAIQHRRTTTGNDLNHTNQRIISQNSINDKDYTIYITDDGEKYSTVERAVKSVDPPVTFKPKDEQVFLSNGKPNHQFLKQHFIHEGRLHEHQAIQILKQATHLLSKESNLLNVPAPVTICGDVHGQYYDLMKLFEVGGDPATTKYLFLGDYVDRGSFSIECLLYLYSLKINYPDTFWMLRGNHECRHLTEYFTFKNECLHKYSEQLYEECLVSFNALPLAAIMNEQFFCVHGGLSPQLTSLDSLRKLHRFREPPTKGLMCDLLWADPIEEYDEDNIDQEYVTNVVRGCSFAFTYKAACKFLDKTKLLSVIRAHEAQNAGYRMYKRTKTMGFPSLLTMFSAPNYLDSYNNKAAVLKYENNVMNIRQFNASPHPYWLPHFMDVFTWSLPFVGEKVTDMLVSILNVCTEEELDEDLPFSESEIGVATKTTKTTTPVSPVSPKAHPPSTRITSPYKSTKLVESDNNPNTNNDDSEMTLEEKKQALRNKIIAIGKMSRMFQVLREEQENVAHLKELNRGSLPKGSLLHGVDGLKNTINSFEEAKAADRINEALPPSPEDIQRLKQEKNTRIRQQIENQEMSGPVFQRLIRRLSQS
Keap1/Nrf2, sequence (Q16236 whole entry): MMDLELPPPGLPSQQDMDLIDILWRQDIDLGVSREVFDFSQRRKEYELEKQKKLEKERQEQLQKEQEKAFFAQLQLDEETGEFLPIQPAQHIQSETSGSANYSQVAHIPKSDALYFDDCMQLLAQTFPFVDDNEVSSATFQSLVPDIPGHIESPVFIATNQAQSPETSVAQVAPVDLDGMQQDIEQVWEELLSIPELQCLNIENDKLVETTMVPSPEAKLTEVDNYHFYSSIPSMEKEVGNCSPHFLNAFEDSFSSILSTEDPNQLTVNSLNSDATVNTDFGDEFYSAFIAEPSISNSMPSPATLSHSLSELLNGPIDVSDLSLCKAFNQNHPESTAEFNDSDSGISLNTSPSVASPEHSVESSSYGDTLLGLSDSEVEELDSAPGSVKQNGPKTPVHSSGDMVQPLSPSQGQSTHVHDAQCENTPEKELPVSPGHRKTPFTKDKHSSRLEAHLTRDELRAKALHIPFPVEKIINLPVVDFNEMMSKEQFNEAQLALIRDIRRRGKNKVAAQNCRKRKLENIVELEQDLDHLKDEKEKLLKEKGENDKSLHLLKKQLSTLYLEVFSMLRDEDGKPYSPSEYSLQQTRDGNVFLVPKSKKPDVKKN
Keap1/Nrf2, sequence (Q14145 whole entry): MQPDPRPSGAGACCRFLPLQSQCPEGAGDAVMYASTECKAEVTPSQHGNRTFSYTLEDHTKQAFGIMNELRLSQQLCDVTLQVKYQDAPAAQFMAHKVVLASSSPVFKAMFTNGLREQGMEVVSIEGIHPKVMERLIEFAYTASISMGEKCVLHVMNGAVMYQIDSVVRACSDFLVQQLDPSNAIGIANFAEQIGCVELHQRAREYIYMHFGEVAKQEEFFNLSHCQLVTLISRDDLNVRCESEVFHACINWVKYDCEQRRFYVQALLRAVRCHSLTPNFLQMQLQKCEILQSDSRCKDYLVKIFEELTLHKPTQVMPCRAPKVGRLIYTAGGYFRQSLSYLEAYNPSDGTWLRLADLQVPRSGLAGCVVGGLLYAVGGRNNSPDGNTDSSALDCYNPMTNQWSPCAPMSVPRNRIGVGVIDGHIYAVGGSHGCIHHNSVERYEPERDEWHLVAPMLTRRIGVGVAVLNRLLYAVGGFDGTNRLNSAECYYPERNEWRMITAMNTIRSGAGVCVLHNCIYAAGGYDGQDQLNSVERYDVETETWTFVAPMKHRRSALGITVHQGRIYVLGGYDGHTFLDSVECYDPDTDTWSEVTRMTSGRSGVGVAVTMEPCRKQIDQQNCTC

Which results are given for `COc1cccc(C2CC(c3ccc(NS(C)(=O)=O)cc3)=NN2C(=O)c2ccccc2)c1OC` (stereo not drawn)?
EC50 [1]: > 180 µM (inactive); EC50 [2]: 1.17 µM (active); EC50 [3]: > 150 µM (inactive); EC50 [4]: > 150 µM (inactive)

Which results are given for `CCOC(=O)C1=C(c2ccccc2)N=c2sc(=Cc3cc(OC)c(OC)c(OC)c3)c(=O)n2C1c1cccs1` (stereo not drawn)?
IC50 [5]: > 50 µM (inactive); IC50 [6]: > 50 µM (inactive); IC50 [7]: > 50 µM (inactive); IC50 [8]: > 50 µM (inactive)

Which AC50 [9] does the source give for `O=C(c1ccccc1)N1CCN(c2ccccn2)CC1` here?
Its AC50 is 184 µM (active).

Which IC50 [10] does the source give for `O=C(Nc1ccc2c(c1)CCC2)c1ccccc1Br` here?
Its IC50 is > 67.6 µM (inactive).

What about the IC50 [11] of the same compound?
Its IC50 is > 67.6 µM (inactive).

And the AC50 [12]?
The AC50 was 8.42 µM (active).

Which results are given for `CN1CCC2(CC1)C1CN(C)CC=C1C(C#N)=C(N)C2(C#N)C#N` (stereo not drawn)?
EC50 [13]: 9 µM (active); AC50 [14]: 20 µM (inconclusive); AC50 [15]: 14.1 µM (inconclusive); AC50 [16]: > 52 µM (inactive)

Which results are given for `Cc1nn(C(C)(C)C)c(C)c1/C=N/OC(=O)Nc1ccc(Cl)cc1`?
EC50 [17]: 0.037 µM (active); EC50 [18]: 0.059 µM (active); EC50 [19]: < 0.1 µM (active); EC50 [20]: 0.075 µM (active); EC50 [21]: < 0.1 µM (active); EC50 [22]: < 0.1 µM (active); IC50 [23]: > 80 µM (inactive); IC50 [24]: < 0.16 µM (active)

With `O=c1c2ccccc2nc(/C=C/c2ccc(Cl)cc2)n1Cc1ccccc1` as the compound, how does the IC50 [25] read?
The IC50 was > 80 µM (inactive).

What about the IC50 [26] of the same compound?
Its IC50 is > 80 µM (inactive).

For `CC1CC(C)CN(CCOCCSc2ccccc2)C1` (stereo not drawn), which EC50 [27] is on record?
Its EC50 is 0.098 µM (active).

And the EC50 [28]?
The EC50 was > 195 µM (not active).

And the EC50 [29]?
Its EC50 is 0.098 µM (active).

For `COc1ccc(S(=O)(=O)N(C)C[C@@H]2Oc3c(NC(=O)Nc4cccc5c4CCCC5)cccc3C(=O)N([C@@H](C)CO)C[C@H]2C)cc1`, which AC50 [30] is on record?
Its AC50 is 52.3 µM (active).

With `CC(=O)N1CCC2(CC1)CN(c1ccncc1)C2` as the compound, how does the AC50 [31] read?
The AC50 was “inconclusive”.

And the AC50 [32]?
Its AC50 is “inconclusive”.

With `Cc1cccc(N2C(=O)/C(=C/c3cccnc3)SC2=S)c1` as the compound, how does the AC50 [33] read?
Its AC50 is 51.7 µM (active).
